The results in this text go back to US5529983A, “Use of small peptides in the treatment of psoriasis” (The United States of America as represented by the …, priority 1995, dated 1996).

Each structure is given as a SMILES string.

Series [1] can be described thus: Toxicity of peptide treatment in human patients. The class given is in vivo. The source says:
Toxicity. As to toxicity, the complete schedule of peptide therapeutic agents above gave negative evidence of toxicity.

Series [2] is described as follows: Six-week intravenous toxicity study in hamsters. The series is classed as in vivo. The source says:
[D-ala^1 ]peptide-T-amide was given twice daily intravenously to hamsters for six weeks. […] Liver enzymes and kidney enzymes were normal after injection.

[3] abbreviates: after injection twice daily intravenously for six weeks.

Turning to `C[C@H](N)C(=O)N[C@@H](CO)C(=O)N[C@H](C(=O)N[C@H](C(=O)N[C@H](C(=O)N[C@@H](CC(N)=O)C(=O)N[C@@H](Cc1ccc(O)cc1)C(=O)N[C@H](C(=O)O)[C@@H](C)O)[C@@H](C)O)[C@@H](C)O)[C@@H](C)O` [Peptide T], the “toxicity in the liver or kidney” value in series [1] (In humans) is on record as “no toxicity apparent”. For the same compound, in series [1] (preliminary findings, blood pressure fell when the infusion rate was increased), the toxicity result is given as “non-toxic with the exception of lowering the blood pressure on one occasion”.

Turning to `C[C@@H](N)C(=O)N[C@@H](CO)C(=O)N[C@H](C(=O)N[C@H](C(=O)N[C@H](C(=O)N[C@@H](CC(N)=O)C(=O)N[C@@H](Cc1ccc(O)cc1)C(=O)N[C@H](C(N)=O)[C@@H](C)O)[C@@H](C)O)[C@@H](C)O)[C@@H](C)O` [[D-ala^1]peptide-T-amide], in series [2] (setting [3]), the Liver enzymes result is listed as “normal” and the kidney enzymes result is “normal”. Also, the “histologic studies on all organs” value in series [2] (twice daily intravenously for six weeks) is “no significant difference”.
